Assay results: patent US8912142B2, “Method of regulating proliferation and differentiation of keratinocyes” (The Medical Research, Infrastructure and Health Services …, priority 2009, dated 2014)
d = 2'-deoxy (DNA); r = 2'-OH (RNA)

Legend:
[1] = test system: primary keratinocytes transfected with IGFBP7 siRNA; test: ERK inhibition, proliferation of IGFBP7-silenced primary keratinocytes; type: cell-based, human; conditions: 120 μM for 72 hours, medium refreshed every 24 hours
Procedure: FIG. 17 is a histogram depicting the effect of ERK inhibition on primary keratinocytes proliferation in IFGBP7-silenced cells and control cells. Primary keratinocytes which were transfected with IGFBP7 siRNA were treated with 120 μM PD98059 (ERK inhibitor) for 72 hours, while refreshing the medium every 24 hours. Note that ERK inhibition attenuates cell proliferation induced by IGFBP7 down-regulation (p<0.01).
To further investigate the involvement of ERK in IGFBP7-mediated cell proliferation primary keratinocytes which were transfected with IGFBP7 siRNA were treated with the ERK inhibitor PD98059 (120 μM for 72 hours, while refreshing the medium every 24 hours).

[2] = test system: primary human keratinocytes; test: TUNEL apoptosis assay in primary keratinocytes; type: cell-based
Procedure: FIGS. 4A-C depict apoptosis assays in HaCat or primary keratinocyte cells. FIGS. 4A-B—HaCat cells stably expressing IGFBP7-specific (IGFBP7) or control shRNA (Co) (scrambled control), were exposed to 10 ng/μl of recombinant tumor necrosis factor-alpha (TNF-α) (+) or vehicle (−) 24 hours after transfection. Apoptosis was measured using the TUNEL assay (FIG. 4A) or the Annexin V assay (FIG. 4B). FIG. 4C—Primary keratinocytes were transiently transfected with IGFBP7-specific siRNA (IGFBP7) or with scrambled control siRNA (Co) and exposed to 10 ng/μl of recombinant TNF-α (+) or vehicle (−). Apoptotic activity was assessed by the TUNEL assay. All experiments were repeated three times. Results are provided as mean values±SD. […]
(§1) FIGS. 6A-C depict cell viability and proliferation assays of primary keratinocytes which exogenously express IGFBP7. […] FIGS. 6A-B—Cell viability and proliferation were assessed using the MTT (FIG. 6A) and BrDU (FIG. 6B) assays. FIG. 6C—Apoptosis was quantitated by TUNEL assay. […]
Apoptosis was assessed using the TUNEL kit (Roche, Mannheim, Germany) according to the manufacturer's protocol. […] More than 1,000 cells were counted for each slide and examined under a fluorescent microscope Zeiss Axioscope 2 (Carl Zeiss MicroImaging, Inc., Thornwood, N.Y.). […] Differences in apoptotic activity were considered significant at p-values <0.01 calculated using a standard Student's t-test.

[3] = test system: primary human keratinocytes; test: MTT assay (cell viability) in primary keratinocytes; type: cell-based
Procedure: (§2) FIGS. 3A-F depict viability and proliferation assays of keratinocytes. […] Data represent mean values±SD of three independent experiments. Asterisk, p<0.01 compared with control cells. FIG. 3B—HaCat cells stably expressing an IGFBP7-specific shRNA or a control shRNA were assessed using the BrDu assay (stable transfection). Data represent mean values±SD of three independent experiments. Asterisk, p<0.01 compared with control cells. FIGS. 3C and D—KRT6a mRNA and protein levels were assessed by qRT-PCR (FIG. 3C) and immunoblotting (FIG. 3D) in HaCat cells stably expressing an IGFBP7-specific shRNA or a control shRNA. FIGS. 3E and F—Primary keratinocytes were transiently transfected with IGFBP7-specific siRNA (IGFBP7) or with control siRNA (control) and assessed using the MTT assay (FIG. 3E; 24 and 48 hours post transfection) and the BrDu assay (FIG. 3F; 24 hours post transfection). Data represent mean values±SD of three independent experiments (Asterisk, p<0.01 compared with control cells).
as §1

[4] = test system: primary human keratinocytes; test: BrDu incorporation assay (proliferation) in primary keratinocytes; type: cell-based
Procedure: as §2, with “Data represent mean values±SD of three independent experiments (Asterisk, p<0.01 compared with control cells).” left out
as §1
The incorporation rate of BrdU was determined by Cell Proliferation ELISA BrdU colorimetric kit (Roche, Mannheim, Germany) according to manufacturer's protocol. Absorbance at 450 nm was measured using an ELISA reader. […]

HaCat cells = test: MTT assay (cell viability) in HaCat cells; type: cell-based, human; conditions: siRNA, cultured 24 and 72 hours
Procedure: as §2
The MTT test is based on the selective ability of living cells to reduce the yellow salt MTT (3-(4,5-dimethylthiazolyl-2)-2,5-diphenyltetrazolium bromide) (Sigma, Aldrich St Louis, Mo., USA) to a purple-blue insoluble formazan precipitate. […] The supernatants were collected and then scanned with an ELISA reader Zenyth 200 (Anthos Labtec, Cambridge, UK) at 560 nm.

[5] = test system: three-dimensional organotypic skin equivalents; test: H&E staining of organotypic skin equivalents; type: cell-based, human; conditions: day 14
Procedure: The present inventors used a three-dimensional organotypic cell culture system to model the role of decreased IGFBP7 expression in the pathogenesis of psoriasis (FIGS. 18 and 19). In this model system, keratinocytes are grown at the air liquid interface on a support consisting of collagen and fibroblasts for up to 2 weeks. During this time, keratinocytes fully differentiate, forming a multilayered, cornified epithelium which faithfully replicates most physiological aspects of normal epidermal biology. The present inventors established the conditions necessary to grow such three-dimensional skin equivalents. Histological and immunohistochemical analyses confirmed the existence of a legitimate differentiation program in these cultures. […] At day 12, the stratum corneum was thickened and desquamation, i.e., detachment of cornified keratinocytes, occurred (FIG. 20).
To confirm the physiological relevance of these findings in keratinocyte monolayers, the present inventors suppressed the expression of IGFBP7 by RNA interference in skin organotypic cultures. […] Punch biopsies were also taken at day 7 for RNA extraction, transcribed to cDNA and analyzed by qRT-PCR for IGFBP7 mRNA expression. IGFBP7 specific siRNA suppressed IGFBP7 expression to less than 60% of the normal level in skin equivalents as measured at day 7 (data not shown). […]

IGFBP7 = test: qRT-PCR of IGFBP7 mRNA in organotypic skin equivalents; type: cell-based, human
Procedure: RNA was extracted from cultured cells using an RNA extraction kit (Roche Mannheim, Germany). cDNA was synthesized from 500 ng of total RNA using the Reverse-iT first strand synthesis kit (ABgene, Epson, UK) and random hexamers. cDNA PCR amplification was carried out using the SYBR Green JumpStart Taq ReadyMix (Sigma-Aldrich, St Louis, Mo., USA) on a M×3000 p/5 p multifilter system (Stratagene, Cedar Creek, Tex., USA) with gene-specific intron-crossing oligonucleotide pairs listed in Table 2 below. To ensure the specificity of the reaction conditions, at the end of the individual runs, the melting temperature (Tm) of the amplified products was measured to confirm its homogeneity. […] Each sample was analyzed in triplicate. For quantification, standard curves were obtained using serially diluted cDNA amplified in the same real-time PCR run. […] After the quantification procedure, the products were resolved by 2.5% agarose gel electrophoresis to confirm that the reaction had amplified DNA fragments of expected size.
To confirm the physiological relevance of these findings in keratinocyte monolayers, the present inventors suppressed the expression of IGFBP7 by RNA interference in skin organotypic cultures. […] Punch biopsies were also taken at day 7 for RNA extraction, transcribed to cDNA and analyzed by qRT-PCR for IGFBP7 mRNA expression. […]

[6] = test system: human skin grafted onto beige-SCID mice injected with NK/T cells from psoriatic patients; test: Chimeric human-mouse psoriasis model, histology; type: in vivo; conditions: intralesional, histology two weeks after the treatment
Procedure: To assess the effect of IGFBP7 on psoriasis, the present inventors used a chimeric mouse model (FIG. 23). The model is based on the use of normal skin from healthy controls that is grafted onto beige-SCID mice. The grafts are then injected with NK/T cells isolated from psoriatic patients (Gilhar et al., 2002).
In the experimental system used herein, two weeks after NK injection (6 weeks after engraftment) 3 groups of mice were treated with intralesional PBS, topical dexamethasone and intralesional IGFBP7. The effect of the treatment was monitored by histology analysis two weeks after the treatment (8 weeks after engraftment).

[7] = test system: primary keratinocyte cells; test: Effect of rIGFBP7 on differentiation of primary keratinocytes; type: cell-based, human; conditions: data not shown
From the text: To confirm the involvement of IGFBP7 in the regulation of keratinocyte proliferation and differentiation, the present inventors examined the effect of recombinant human IGFBP7 polypeptide (rIGFBP7) on primary keratinocyte cells.

[8] = 1.8 μg/μl rIGFBP7 for 72 hours, then 12 hours in medium lacking rIGFBP7

COc1cccc(-c2cc(=O)c3ccccc3o2)c1N [PD98059]
keratinocyte proliferation induced by IGFBP7 down-regulation [1]: prevented the induction of keratinocyte proliferation

IGFBP7 specific siRNA: siRNA IGFBP7 duplex of SEQ ID NO:32 and SEQ ID NO:33 (Sigma-Proligo) (chain 1 GCUGGUAUCUCCUCUAAGUTT; chain 2 ACUUAGAGGAGAUACCAGCTT; sugars from the 5' end r19 d2, backbone not given here)
TNF-α-induced cell apoptosis (TUNEL assay) ([2]; primary keratinocytes transiently transfected, 10 ng/μl recombinant TNF-α): prevented TNF-α-induced cell apoptosis
cell viability (MTT assay) ([3]; primary keratinocytes, 24 and 48 hours post transfection): more viable and proliferative
cell proliferation (BrDu assay) ([4]; primary keratinocytes, 24 hours post transfection): more viable and proliferative
cell viability (MTT assay) (HaCat cells): more viable and proliferative
H&E histological changes [5]: abnormal stratification, absence of granular layer, parakeratosis and marked hyperkeratosis
duration of the siRNA effect (IGFBP7; organotypic skin model, data not shown): at least 7 days
IGFBP7 expression relative to normal level (IGFBP7; skin equivalents, day 7, data not shown): less than 60%

rIGFBP7: human recombinant IGFBP7 polypeptide (R&D systems Inc. Catalogue No. 1334-B7-025)
keratinocyte apoptosis (TUNEL assay) ([2]; 1.8 μg/μl rIGFBP7 for 72 hours, then 12 hours in medium lacking rIGFBP7, TNF-α-mediated): increase in keratinocyte apoptosis
viable cell counts (MTT assay) [3, 8]: decrease in viable cell counts
cell proliferation (BrDu assay) [4, 8]: decrease in cell proliferation
mice with features of psoriasis on histology [6]: one animal only showed features of psoriasis on histology
mice with full recovery on histology [6]: three mice showed full recovery
mice with partial recovery on histology [6]: one mouse recovered partially (50%)
mononuclear infiltrating cells in the dermis [6]: could still be seen in the dermis albeit in smaller numbers
cell differentiation [7]: lacked significant effect on cell differentiation
